Data reported in patent publication US12497408B2, “Tetracyclic compounds and methods for the treatment of Zika virus infection” (priority 2021, dated 2025).
pEC50: −log10 of the molar value.

These compounds were tested on ZIKV (assay: ZIKV reporter virus-based antiviral screening on Huh7 cells). Conditions: Huh7 cells infected with recombinant luciferase reporter ZIKV (MOI about 0.1), 48 hrs, luciferase signal; read-out: EC50.
Format: cell-based, Zika virus
Method in brief: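 Huh7 cells in 2% FBS assay medium infected at MOI about 0.1 with Renilla or Nano luciferase ZIKV premixed with nine-point compound dilutions, 48 hrs at 37° C. Luciferase signal normalized to DMSO controls as 100%; viability optionally by CellTiter-Glo with Rlu virus.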
`CC[C@H](C)[C@H](NC(=O)OC)C(=O)N1C[C@@H](C)C[C@H]1c1nc(Cl)c(-c2cc3c4c(c2)OCc2cc(-c5[nH]c([C@@H]6C[C@H](C)CN6C(=O)[C@@H](NC(=O)OC)[C@@H](C)CC)nc5C(C)C)cc(c2-4)OC3)[nH]1` [Compound 73, methyl ((2S,3S)-1-((2S,4S)-2-(5-(7-(4-chloro-2-((2S,4S)-1-((methoxycarbonyl)-1-isoleucyl)-4-methylpyrrolidin-2-yl)-1H-imidazol-5-yl)-5,10-dihydrochromeno[5,4,3-cde]chromen-2-yl)-4-isopropyl-1H-imidazol-2-yl)-4-methylpyrrolidin-1-yl)-3-methyl-1-oxopentan-2-yl)carbamate] was tested, and the pEC50 was 8.49.

Same assay, conditions: Zika virus, Huh-7, 48 h, Huh7 cells infected with recombinant luciferase reporter ZIKV (MOI about 0.1), luciferase signal
`CC[C@H](C)[C@H](NC(=O)OC)C(=O)N1C[C@@H](C)C[C@H]1c1nc(Cl)c(-c2cc3c4c(c2)OCc2cc(-c5[nH]c([C@@H]6C[C@H](C)CN6C(=O)[C@@H](NC(=O)OC)[C@@H](C)CC)nc5Cl)cc(c2-4)OC3)[nH]1` [Compound 68, dimethyl ((2S,2′S,3S,3′S)-((3S,3′S,5S,5′S)-((5,10-dihydrochromeno[5,4,3-cde]chromene-2,7-diyl)bis(4-chloro-1H-imidazole-5,2-diyl))bis(3-methylpyrrolidine-5,1-diyl))bis(3-methyl-1-oxopentane-1,2-diyl))dicarbamate] showed a pEC50 of 8.00. Compound `COC(=O)N[C@H](C(=O)N1C[C@@H](C)C[C@H]1c1nc(Cl)c(-c2cc3c4c(c2)OCc2cc(-c5[nH]c([C@@H]6C[C@H](C)CN6C(=O)[C@@H](NC(=O)OC)C(C)C)nc5Br)cc(c2-4)OC3)[nH]1)C(C)C` [Compound 69, methyl ((S)-1-((2S,4S)-2-(4-bromo-5-(7-(4-chloro-2-((2S,4S)-1-((methoxycarbonyl)-L-valyl)-4-methylpyrrolidin-2-yl)-1H-imidazol-5-yl)-5,10-dihydrochromeno[5,4,3-cde]chromen-2-yl)-1H-imidazol-2-yl)-4-methylpyrrolidin-1-yl)-3-methyl-1-oxobutan-2-yl)carbamate] has a pEC50 of 7.94. `CC[C@H](C)[C@H](NC(=O)OC)C(=O)N1C[C@@H](C)C[C@H]1c1ncc(-c2cc3c4c(c2)OCc2cc(-c5[nH]c([C@@H]6C[C@H](C)CN6C(=O)[C@@H](NC(=O)OC)[C@@H](C)CC)nc5C(C)C)cc(c2-4)OC3)[nH]1` [Compound 70, methyl ((2S,3S)-1-((2S,4S)-2-(4-isopropyl-5-(7-(2-((2S,4S)-1-((methoxycarbonyl)-L-isoleucyl)-4-methylpyrrolidin-2-yl)-1H-imidazol-5-yl)-5,10-dihydrochromeno[5,4,3-cde]chromen-2-yl)-1H-imidazol-2-yl)-4-methylpyrrolidin-1-yl)-3-methyl-1-oxopentan-2-yl)carbamate] gave a pEC50 of 7.76. Work on `C=C(C)c1nc([C@@H]2C[C@H](C)CN2C(=O)[C@@H](NC(=O)OC)C(C)C)[nH]c1-c1cc2c3c(c1)OCc1cc(-c4[nH]c([C@@H]5C[C@H](C)CN5C(=O)[C@@H](NC(=O)OC)C(C)C)nc4C(=C)C)cc(c1-3)OC2` [Compound 71, dimethyl ((2S,2′S)-((3S,3′S,5S,5′S)-((5,10-dihydrochromeno[5,4,3-cde]chromene-2,7-diyl)bis(4-(prop-1-en-2-yl)-1H-imidazole-5,2-diyl))bis(3-methylpyrrolidine-5,1-diyl))bis(3-methyl-1-oxobutane-1,2-diyl))dicarbamate] yielded a pEC50 of 7.44. `COC(=O)N[C@H](C(=O)N1C[C@@H](C)C[C@H]1c1nc(C(C)C)c(-c2cc3c4c(c2)OCc2cc(-c5[nH]c([C@@H]6C[C@H](C)CN6C(=O)[C@@H](NC(=O)OC)C(C)C)nc5C(C)C)cc(c2-4)OC3)[nH]1)C(C)C` [Compound 72, dimethyl ((2S,2′S)-((3S,3′S,5S,5′S)-((5,10-dihydrochromeno[5,4,3-cde]chromene-2,7-diyl)bis(4-isopropyl-1H-imidazole-5,2-diyl))bis(3-methylpyrrolidine-5,1-diyl))bis(3-methyl-1-oxobutane-1,2-diyl))dicarbamate] was tested, and the pEC50 was 7.93. In the case of `COC(=O)N[C@H](C(=O)N1[C@@H](C)CC[C@H]1c1nc(Cl)c(-c2cc3c4c(c2)OCc2cc(-c5[nH]c([C@@H]6CC[C@H](C)N6C(=O)[C@@H](NC(=O)OC)C(C)C)nc5Cl)cc(c2-4)OC3)[nH]1)C(C)C` [Compound 74, dimethyl ((2S,2′S)-((2S,2′S, 5S,5′S)-((5,10-dihydrochromeno[5,4,3-cde]chromene-2,7-diyl)bis(4-chloro-1H-imidazole-5,2-diyl))bis(2-methylpyrrolidine-5,1-diyl))bis(3-methyl-1-oxobutane-1,2-diyl))dicarbamate], the pEC50 was 8.70. With `COC(=O)N[C@H](C(=O)N1[C@@H](C)CC[C@H]1c1ncc(-c2cc3c4c(c2)OCc2cc(-c5[nH]c([C@@H]6CC[C@H](C)N6C(=O)[C@@H](NC(=O)OC)C(C)C)nc5Cl)cc(c2-4)OC3)[nH]1)C(C)C` [Compound 75, methyl ((S)-1-((2S,5S)-2-(4-chloro-5-(7-(2-((2S,5S)-1-((methoxycarbonyl)-L-valyl)-5-methylpyrrolidin-2-yl)-1H-imidazol-5-yl)-5,10-dihydrochromeno[5,4,3-cde]chromen-2-yl)-1H-imidazol-2-yl)-5-methylpyrrolidin-1-yl)-3-methyl-1-oxobutan-2-yl)carbamate] the pEC50 was 8.02. `COC(=O)N[C@H](C(=O)N1CCC[C@H]1c1nc(C(C)(C)C)c(-c2cc3c4c(c2)OCc2cc(-c5[nH]c([C@@H]6CCCN6C(=O)[C@@H](NC(=O)OC)C(C)C)nc5C(C)(C)C)cc(c2-4)OC3)[nH]1)C(C)C` [Compound 76, Dimethyl ((2S,2′S)-((2S,2′S)-((5,10-dihydrochromeno[5,4,3-cde]chromene-2,7-diyl)bis(4-(tert-butyl)-1H-imidazole-5,2-diyl))bis(pyrrolidine-2,1-diyl))bis(3-methyl-1-oxobutane-1,2-diyl))dicarbamate] gave a pEC50 of 6.30. In the case of `CC[C@H](C)[C@H](NC(=O)OC)C(=O)N1CC2(CC2)C[C@@H]1c1nc(Cl)c(-c2cc3c4c(c2)OCc2cc(-c5[nH]c([C@H]6CC7(CC7)CN6C(=O)[C@@H](NC(=O)OC)[C@@H](C)CC)nc5C(C)C)cc(c2-4)OC3)[nH]1` [Compound 78, methyl ((2S,3S)-1-((R)-6-(5-(7-(4-chloro-2-((R)-5-((methoxycarbonyl)-L-isoleucyl)-5-azaspiro[2.4]heptan-6-yl)-1H-imidazol-5-yl)-5,10-dihydrochromeno[5,4,3-cde]chromen-2-yl)-4-isopropyl-1H-imidazol-2-yl)-5-azaspiro[2.4]heptan-5-yl)-3-methyl-1-oxopentan-2-yl)carbamate], the pEC50 was < 6.00. In the case of `CCCc1nc([C@@H]2CCCN2C(=O)[C@@H](NC(=O)OC)C(C)C)[nH]c1-c1cc2c3c(c1)OCc1cc(-c4[nH]c([C@@H]5CCCN5C(=O)[C@@H](NC(=O)OC)C(C)C)nc4CCC)cc(c1-3)OC2` [Compound 79, dimethyl ((2S,2′S)-((2S,2′S)-((5,10-dihydrochromeno[5,4,3-cde]chromene-2,7-diyl)bis(4-propyl-1H-imidazole-5,2-diyl))bis(pyrrolidine-2,1-diyl))bis(3-methyl-1-oxobutane-1,2-diyl))dicarbamate], the pEC50 was 6.70. `COC(=O)N[C@H](C(=O)N1C[C@@H](C)C[C@H]1c1nc(Cl)c(-c2cc3c4c(c2)OCc2cc(-c5[nH]c([C@@H]6C[C@H](C)CN6C(=O)[C@@H](NC(=O)OC)C(C)C)nc5C(C)C)cc(c2-4)OC3)[nH]1)C(C)C` [Compound 80, methyl ((S)-1-((2S,4S)-2-(5-(7-(4-chloro-2-((2S,4S)-1-((methoxycarbonyl)-L-valyl)-4-methylpyrrolidin-2-yl)-1H-imidazol-5-yl)-5,10-dihydrochromeno[5,4,3-cde]chromen-2-yl)-4-isopropyl-1H-imidazol-2-yl)-4-methylpyrrolidin-1-yl)-3-methyl-1-oxobutan-2-yl)carbamate] was tested, and the pEC50 was 8.24. For `COC(=O)N[C@@H](C(=O)N1CC2(CC2)C[C@H]1c1nc(Cl)c(-c2cc3c4c(c2)OCc2cc(-c5[nH]c([C@@H]6CC7(CC7)CN6C(=O)[C@H](NC(=O)OC)C(C)C)nc5C(C)C)cc(c2-4)OC3)[nH]1)C(C)C` [Compound 81, methyl ((R)-1-((S)-6-(5-(7-(4-chloro-2-((S)-5-((methoxycarbonyl)-D-valyl)-5-azaspiro[2.4]heptan-6-yl)-1H-imidazol-5-yl)-5,10-dihydrochromeno[5,4,3-cde]chromen-2-yl)-4-isopropyl-1H-imidazol-2-yl)-5-azaspiro[2.4]heptan-5-yl)-3-methyl-1-oxobutan-2-yl)carbamate], the pEC50 was < 6.00. `COC(=O)N[C@H](C(=O)N1CC2(CC2)C[C@H]1c1nc(Cl)c(-c2cc3c4c(c2)OCc2cc(-c5[nH]c([C@@H]6CC7(CC7)CN6C(=O)[C@@H](NC(=O)OC)C(C)(C)C)nc5C(C)C)cc(c2-4)OC3)[nH]1)C(C)(C)C` [Compound 82, methyl ((S)-1-((S)-6-(5-(7-(4-chloro-2-((S)-5-((S)-2-((methoxycarbonyl)amino)-3,3-dimethylbutanoyl)-5-azaspiro[2.4]heptan-6-yl)-1H-imidazol-5-yl)-5,10-dihydrochromeno[5,4,3-cde]chromen-2-yl)-4-isopropyl-1H-imidazol-2-yl)-5-azaspiro[2.4]heptan-5-yl)-3,3-dimethyl-1-oxobutan-2-yl)carbamate] was tested, and the pEC50 was 8.59. With `CC[C@@H](C)[C@H](NC(=O)OC)C(=O)N1CC2(CC2)C[C@H]1c1nc(Cl)c(-c2cc3c4c(c2)OCc2cc(-c5[nH]c([C@@H]6CC7(CC7)CN6C(=O)[C@@H](NC(=O)OC)[C@H](C)CC)nc5C(C)C)cc(c2-4)OC3)[nH]1` [Compound 83, methyl ((2S,3R)-1-((S)-6-(5-(7-(4-chloro-2-((S)-5-((methoxycarbonyl)-L-alloisoleucyl)-5-azaspiro[2.4]heptan-6-yl)-1H-imidazol-5-yl)-5,10-dihydrochromeno[5,4,3-cde]chromen-2-yl)-4-isopropyl-1H-imidazol-2-yl)-5-azaspiro[2.4]heptan-5-yl)-3-methyl-1-oxopentan-2-yl)carbamate] the pEC50 was 8.62.
